Assay [1] has as its target T1, MMP-2 (Homo sapiens, UniProt P08253).
T1 construct: The recombinant catalytic domains of MMP-2 and -9 were expressed in HEK293 cells; made in house; host or cells: HEK293 cells, stably transfected; purified from serum-free medium on Gelatin Sepharose 4B
As to the kind of experiment: kcat/KM of synthetic peptides derived from substrate phage selections. In kind it is biochemical. As to conditions: synthetic hexamer peptides; recombinant MMP-2 catalytic domain, APMA-activated; determined in triplicate as described in ref 27. From the text:
(§1) K(obs) obtained for each of the 1369 substrates has a range of 0 and 12,792 (M^-1 s^-1) due to the experimental conditions used in the study. So, all substrates with the true K(obs) above this value will nevertheless have a K(obs) equal to the preset maximum. With this limitation in mind, we corroborated the results using synthetic peptides, thereby extending the correlation to the entire range of kcat/KM values for each MMP. We performed a correlation analysis using a set of 100 peptides with sequences derived from substrate phage selections and their kcat/KM values were experimentally determined as described in [27] (S8 Table).
(§2) The recombinant catalytic domains of MMP-2 and -9 were expressed in HEK293 cells stably transfected with respective constructs and purified from serum-free culture medium using Gelatin Sepharose 4B (GE Healthcare) as described in [29, 35]. Following activation with APMA (Sigma-Aldrich), the amount of active enzyme was determined by active site titration using GM6001 (Sigma-Aldrich). The kcat/KM values of 100 peptides derived from phage substrates […] were determined in triplicate as described in [27].
(§3) Supplementary file pcbi.1008101.s010.xlsx: S8 Table Table of 100 peptide set derived from substrate phage selections of MMP-2 and 9, for which kcat/KM values were experimentally determined. […]

The subject of assay [2] is MMP-2. As to the kind of experiment: Substrate phage display with NGS: relative probability (RP) of P3-P1' tetramer clusters. In kind it is biochemical, human. As to conditions: for relative probability (RP) (acc.to MMP2): RP of matching tetramer of the cleavage site, unique part of MMP9 selectome.
Assay [3] concerns MMP-9. Described as above. In kind it is biochemical, human. The following applies: for relative probability (RP) (acc.to MMP9): RP of matching tetramer of the cleavage site, unique part of MMP9 selectome.
The target in assay [4] is MMP-9 (Homo sapiens, UniProt P14780). The experiment in a line: kcat/KM of synthetic peptides derived from substrate phage selections. Format: biochemical. The arrangement: The recombinant catalytic domains of MMP-2 and -9 were expressed in HEK293 cells; made in house; host or cells: HEK293 cells, stably transfected; purified from serum-free medium on Gelatin Sepharose 4B. The following applies: MMP9; 100 set of synthetic hexamer peptide substrates; mean, SD and SEM in columns of their own.
MMP-9 (Homo sapiens, UniProt P14780), sequence (P14780 94-444 limits assumed): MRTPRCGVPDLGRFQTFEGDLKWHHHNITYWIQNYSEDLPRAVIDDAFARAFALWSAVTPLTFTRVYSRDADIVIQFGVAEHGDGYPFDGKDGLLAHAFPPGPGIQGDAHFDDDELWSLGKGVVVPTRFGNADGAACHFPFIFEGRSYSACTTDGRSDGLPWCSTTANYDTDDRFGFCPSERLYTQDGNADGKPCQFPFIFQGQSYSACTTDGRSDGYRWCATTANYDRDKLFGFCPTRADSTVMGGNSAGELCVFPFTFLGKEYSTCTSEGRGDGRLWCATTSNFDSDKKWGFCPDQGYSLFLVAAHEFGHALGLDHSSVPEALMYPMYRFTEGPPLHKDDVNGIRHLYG
Source text: as §1, §2, §3

The subject of assay [5] is MMP-9. As to the kind of experiment: N-terminomic (TMT) analysis of MMP-treated HEK293 secretome: isotopic enrichment of novel N-termini. As to conditions: for isotopic enrichment (log2(ratio)) (acc.to MMP9): HEK293 secretome, 750 nM MMP-9, 2 h, 37 C, TMT reporter ratio vs untreated control, LC-MS/MS, duplicate; for isotopic enrichment (log2(ratio)): MMP9 cleavages in HEK293 cell proteins, determined by LC-MS/MS, log2(ratio) range (>3σ, 2σ-3σ, 1σ-2σ). In kind it is biochemical, human.

The subject of assay [6] is MMP-2. The description is as above. In kind it is biochemical, human. The following applies: HEK293 secretome, 750 nM MMP-2, 2 h, 37 C; TMT reporter ratio vs untreated control, LC-MS/MS, duplicate.

T1 sequence (P08253 110-446 limits assumed): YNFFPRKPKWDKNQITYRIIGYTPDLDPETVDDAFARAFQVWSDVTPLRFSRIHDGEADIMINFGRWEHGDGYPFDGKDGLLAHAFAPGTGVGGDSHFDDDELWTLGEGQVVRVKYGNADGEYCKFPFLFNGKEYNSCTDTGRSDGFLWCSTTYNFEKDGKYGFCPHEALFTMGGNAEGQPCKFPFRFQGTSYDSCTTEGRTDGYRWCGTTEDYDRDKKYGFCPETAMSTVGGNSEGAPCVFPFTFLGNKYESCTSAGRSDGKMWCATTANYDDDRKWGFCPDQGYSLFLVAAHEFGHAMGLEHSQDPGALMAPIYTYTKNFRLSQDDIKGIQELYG

For the substance DRKPKA, the kcat/Km in assay [1] and in assay [4] was 0 M⁻¹ s⁻¹ in each case. Further, the “relative probability (RP)” value is reported as 0.3523 in assay [2] (RP of the P3-P1' tetramer cluster contained in the hexamer, 200 nM MMP-2, 2 h, 37°C, two rounds of selection) and 1.5839 in assay [3] (MMP9, RP of the P3-P1' tetramer contained in the hexamer substrate (substrate phage display, NGS)).

As for DSTMN-MLGGGG, the “relative probability (RP) (acc.to MMP2)” value in assay [2] is listed as 0. In assay [3], the “relative probability (RP) (acc.to MMP9)” value is reported as 6.67. In addition, in assay [5], the “isotopic enrichment (log2(ratio)) (acc.to MMP9)” value is 1.618 log2(ratio) and the “isotopic enrichment (log2(ratio))” value was determined as 1.618. Moreover, in assay [6], the “isotopic enrichment (log2(ratio)) (acc.to MMP2)” value was 0.8797 log2(ratio).

In the case of “FCPMA-AHEEIC [MS detected cleavage site in Fibronectin (P02751)]”, the “relative probability (RP) (acc.to MMP2)” value in assay [2] came out at 3.68. Further, the “relative probability (RP) (acc.to MMP9)” value in assay [3] is reported as 16.94. In assay [5], the “isotopic enrichment (log2(ratio)) (acc.to MMP9)” value is 1.774 log2(ratio) and the “isotopic enrichment (log2(ratio))” value is on record as 1.774. Also, the “isotopic enrichment (log2(ratio)) (acc.to MMP2)” value in assay [6] is 0.5261 log2(ratio).

Turning to “GKPFK-IQVLVE [MS detected cleavage site in Galectin-3 (P17931)]”, the “relative probability (RP) (acc.to MMP2)” value in assay [2] amounted to 1.13. The “relative probability (RP) (acc.to MMP9)” value in assay [3] was 34.84. Besides, in assay [5], the “isotopic enrichment (log2(ratio)) (acc.to MMP9)” value was 1.459 log2(ratio) and the “isotopic enrichment (log2(ratio))” value was determined as 1.459. The “isotopic enrichment (log2(ratio)) (acc.to MMP2)” value in assay [6] is 0.7991 log2(ratio).

Take “KHIYY-ITGETK [MS detected cleavage site in Heat shock protein HSP 90-alpha (P07900)]”: the “relative probability (RP) (acc.to MMP2)” value in assay [2] came to 0.69. Also, the “relative probability (RP) (acc.to MMP9)” value in assay [3] was 14.54. Moreover, in assay [5], the “isotopic enrichment (log2(ratio)) (acc.to MMP9)” value was 3.338 log2(ratio) and the “isotopic enrichment (log2(ratio))” value is 3.338. The “isotopic enrichment (log2(ratio)) (acc.to MMP2)” value in assay [6] is listed as 0.7225 log2(ratio).

With “KPPRL-VGGPMD [MS detected cleavage site in Cystatin-C (P01034)]”, in assay [2], the “relative probability (RP) (acc.to MMP2)” value turned out to be 0.07. In addition, the “relative probability (RP) (acc.to MMP9)” value in assay [3] was 7.12. In assay [5], the “isotopic enrichment (log2(ratio)) (acc.to MMP9)” value is 1.9855 log2(ratio) and the “isotopic enrichment (log2(ratio))” value was determined as 1.9855. In assay [6], the “isotopic enrichment (log2(ratio)) (acc.to MMP2)” value is given as 0.8156 log2(ratio).

In the case of “KSIYY-ITGESK [MS detected cleavage site in Heat shock protein HSP 90-beta (P08238)]”, in assay [3], the “relative probability (RP) (acc.to MMP9)” value came out at 14.54. Moreover, in assay [5], the “isotopic enrichment (log2(ratio)) (acc.to MMP9)” value is listed as 3.962 log2(ratio) and the “isotopic enrichment (log2(ratio))” value is given as 3.962. Besides, the “isotopic enrichment (log2(ratio)) (acc.to MMP2)” value in assay [6] was 0.3785 log2(ratio).

In the case of LPPDH-LNGVKL, the “relative probability (RP) (acc.to MMP2)” value in assay [2] was determined as 2.08. The “relative probability (RP) (acc.to MMP9)” value in assay [3] was determined as 13.06. Besides, in assay [5], the “isotopic enrichment (log2(ratio)) (acc.to MMP9)” value is listed as 2.07 log2(ratio) and the “isotopic enrichment (log2(ratio))” value was 2.07. Further, the “isotopic enrichment (log2(ratio)) (acc.to MMP2)” value in assay [6] is recorded as 1.257 log2(ratio).

Regarding “NHIRY-VISQGN [MS detected cleavage site in Fibrillin-2 (P35556)]”, the “relative probability (RP) (acc.to MMP2)” value in assay [2] was determined as 0.96. Further, in assay [3], the “relative probability (RP) (acc.to MMP9)” value stood at 10.4. Also, in assay [5], the “isotopic enrichment (log2(ratio)) (acc.to MMP9)” value is recorded as 3.134 log2(ratio) and the “isotopic enrichment (log2(ratio))” value is 3.134. In addition, in assay [6], the “isotopic enrichment (log2(ratio)) (acc.to MMP2)” value is 1.367 log2(ratio).

“QQPFA-SVMTDE [MS detected cleavage site in Semaphorin-3D (O95025)]”: the “relative probability (RP) (acc.to MMP2)” value in assay [2] is 3.01. For the same substance, the “relative probability (RP) (acc.to MMP9)” value in assay [3] is 24.05. In assay [5], the “isotopic enrichment (log2(ratio)) (acc.to MMP9)” value is 2.583 log2(ratio) and the “isotopic enrichment (log2(ratio))” value was found to be 2.583. For the same substance, the “isotopic enrichment (log2(ratio)) (acc.to MMP2)” value in assay [6] is listed as 0.2016 log2(ratio).

For the substance “VVPWP-HVEGVE [MS detected cleavage site in N-acetylgalactosaminyltransferase 7 (Q86SF2)]”, the “relative probability (RP) (acc.to MMP2)” value in assay [2] is reported as 0. Also, the “relative probability (RP) (acc.to MMP9)” value in assay [3] worked out at 15.08. Further, in assay [5], the “isotopic enrichment (log2(ratio)) (acc.to MMP9)” value is 3.516 log2(ratio) and the “isotopic enrichment (log2(ratio))” value worked out at 3.516. Moreover, in assay [6], the “isotopic enrichment (log2(ratio)) (acc.to MMP2)” value is recorded as 1.195 log2(ratio).

What is called kcat/Km is the second-order rate constant that governs catalysis at low substrate concentration.

Values taken from paper PMC7932537, “Quantitative profiling of protease specificity” (PLoS Computational Biology, 2021).
